Test results reported in patent publication US20100129831A1, “METHODS FOR DIAGNOSING HYPERSENSITIVITY REACTIONS” (priority 2007, published 2010).

Test system: acute interstitial nephritis
Experiment: oral glucocorticoid treatment of acute interstitial nephritis (case report)
Type: in vivo, human
Conditions: 1 mg/kg, creatinine gradually declined
Description: Severe acute interstitial nephritis (AIN) was diagnosed based on needle biopsy. Oral glucocorticoid treatment (prednisone 1 mg/kg) was begun and was effective. Creatinine gradually declined over the next 8 weeks (Cr-3.5 mg/dL); glucose levels also declined. Another course of steroids was initiated, after which the creatinine level further declined, stabilizing around a level of 1.8 mg/dL, close to the previous value of 1.4 mg/dL. While investigated as to the etiology of their newly diagnosed AIN, the patient described the use of an alternative medicine hypnotic or sedative OTC, “Region-Laila.” Region's leaflet lists 4 active ingredients: Passiflora incarnata 250 mg, Scutellaria laterifolia 50 mg, Humulus Lupullus 50 mg and Melissa officinalis 25 mg.

## C[C@]12C=CC(=O)C=C1CC[C@@H]1[C@@H]2C(=O)C[C@@]2(C)[C@H]1CC[C@]2(O)C(=O)CO [prednisone]
  treatment outcome in acute interstitial nephritis: effective
